Assay results from article PMC8286840, “Identifying SARS-CoV-2 antiviral compounds by screening for small molecule inhibitors of Nsp3 papain-like protease” (Biochemical Journal, 2021).
Structures can show the parent of a compound that is named as a salt. Where two headings read alike, the source gives them in different places.

Experiments:
[1] = biological target: T1, SARS-CoV-2 PLpro (nsp3 1564–1878) (Severe acute respiratory syndrome coronavirus 2, UniProt P0DTD1); assay: biochemical; design: FRET-quenched peptide (Pro3) cleavage by PLpro, 10 min pre-incubation, slope over 20 min, normalised to no-compound control; conditions: high concentration screen, read-out: % of control remaining
[2] = biological target: T1, SARS-CoV-2 PLpro (nsp3 1564–1878); assay: biochemical; design: FRET-quenched peptide (Pro3) cleavage by PLpro, 10 min pre-incubation, slope over 20 min, normalised to no-compound control; conditions: low concentration screen, read-out: % of control remaining

Compound: C[C@@H](O)[C@H]1C(=O)N2C(C(=O)O)=C(SCCNC=N)C[C@H]12 [Imipenem]
- remaining activity at 3.75 µM ([1]; Well no.=1935): 103%
- remaining activity at 3.75 µM ([1]; Well no.=5494): 104%
- remaining activity at 1.25 µM ([2]; Well no.=1935): 102%
- remaining activity at 1.25 µM ([2]; Well no.=5494): 104%

Compound: CN(C)CCCN1c2ccccc2CCc2ccccc21 [Imipramine hydrochloride]
- remaining activity at 3.75 µM ([1]; Well no.=1061): 97.7%
- remaining activity at 1.25 µM ([2]; Well no.=1061): 100%

Compound: CC(C)Cn1cnc2c(N)nc3ccccc3c21 [Imiquimod]
- remaining activity at 3.75 µM ([1]; Well no.=2222): 94.3%
- remaining activity at 3.75 µM ([1]; Well no.=8069): 108%
- remaining activity at 1.25 µM ([2]; Well no.=2222): 94%
- remaining activity at 1.25 µM ([2]; Well no.=8069): 109%

Compound: C[C@H]1CC[C@@H]2N(C1)C[C@H]1[C@@H]3C[C@H]4[C@@H](CC(=O)[C@H]5C[C@@H](O)CC[C@@]54C)[C@@H]3CC[C@H]1[C@]2(C)O [Imperialine]
- remaining activity at 3.75 µM ([1]; Well no.=3155): 101%
- remaining activity at 1.25 µM ([2]; Well no.=3155): 93.8%

Compound: CC(Nc1nc(N2CCCC2)nc2ccccc12)c1ccccc1 (stereo not drawn) [Importazole]
- remaining activity at 3.75 µM ([1]; Well no.=5622): 96.8%
- remaining activity at 1.25 µM ([2]; Well no.=5622): 95.6%

Compound: CCC(Sc1nnc2c(n1)[nH]c1ccccc12)C(=O)N1c2ccccc2Sc2ccccc21 (stereo not drawn) [Inauhzin]
- remaining activity at 3.75 µM ([1]; Well no.=6158): 91.7%
- remaining activity at 1.25 µM ([2]; Well no.=6158): 100%

Compound: CCc1cc2c(cc1CC)CC(NC[C@H](O)c1ccc(O)c3[nH]c(=O)ccc13)C2 [Indacaterol (maleate)]
- remaining activity at 3.75 µM ([1]; Well no.=8199): 95%
- remaining activity at 1.25 µM ([2]; Well no.=8199): 105%

Compound: CCc1cc2c(cc1CC)CC(NC[C@H](O)c1ccc(O)c3[nH]c(=O)ccc13)C2 [Indacaterol Maleate]
- remaining activity at 3.75 µM ([1]; Well no.=5323): 98.4%
- remaining activity at 1.25 µM ([2]; Well no.=5323): 101%

Compound: CC1Cc2ccccc2N1NC(=O)c1ccc(Cl)c(S(N)(=O)=O)c1 (stereo not drawn) [Indapamide]
- remaining activity at 3.75 µM ([1]; Well no.=2224): 103%
- remaining activity at 1.25 µM ([2]; Well no.=2224): 98.6%

Compound: CN[C@@H]1C[C@@H](c2ccc(Cl)c(Cl)c2)c2ccccc21 [Indatraline hydrochloride]
- remaining activity at 3.75 µM ([1]; Well no.=969): 106%
- remaining activity at 1.25 µM ([2]; Well no.=969): 106%

Compound: O=C(Nc1ccncc1)C(=O)c1cn(Cc2ccc(Cl)cc2)c2ccccc12 [Indibulin]
- remaining activity at 3.75 µM ([1]; Well no.=6784): 98.9%
- remaining activity at 1.25 µM ([2]; Well no.=6784): 98.6%

Compound: O=Nc1c(-c2c(O)[nH]c3ccccc23)[nH]c2ccccc12 [Indirubin-3'-oxime]
- remaining activity at 3.75 µM ([1]; Well no.=668): 92.9%
- remaining activity at 1.25 µM ([2]; Well no.=668): 95.2%

Compound: O=Nc1c(-c2c(O)[nH]c3ccccc23)[nH]c2ccccc12 [Indirubin-3?-monoxime]
- remaining activity at 3.75 µM ([1]; Well no.=2358): 106%
- remaining activity at 1.25 µM ([2]; Well no.=2358): 99.7%

Compound: O=C1Nc2ccccc2/C1=C1/Nc2ccccc2C1=O [Indirubin]
- remaining activity at 3.75 µM ([1]; Well no.=3771): 101%
- remaining activity at 1.25 µM ([2]; Well no.=3771): 95.4%

Compound: NS(=O)(=O)c1ccc(S(=O)(=O)Nc2cccc3c(Cl)c[nH]c23)cc1 [Indisulam]
- remaining activity at 3.75 µM ([1]; Well no.=6068): 95%
- remaining activity at 1.25 µM ([2]; Well no.=6068): 94.4%

Compound: O=C(O)Cc1c[nH]c2ccccc12 [Indole-3-acetic acid]
- remaining activity at 3.75 µM ([1]; Well no.=3667): 104%
- remaining activity at 1.25 µM ([2]; Well no.=3667): 101%

Compound: O=C(O)CCCc1c[nH]c2ccccc12 [Indole-3-butyric acid]
- remaining activity at 3.75 µM ([1]; Well no.=3210): 98.5%
- remaining activity at 1.25 µM ([2]; Well no.=3210): 91.8%

Compound: OCc1c[nH]c2ccccc12 [Indole-3-carbinol]
- remaining activity at 3.75 µM ([1]; Well no.=3524): 102%
- remaining activity at 1.25 µM ([2]; Well no.=3524): 102%

Compound: O=C(O)c1c[nH]c2ccccc12 [Indole-3-carboxylic acid]
- remaining activity at 3.75 µM ([1]; Well no.=6741): 97.8%
- remaining activity at 1.25 µM ([2]; Well no.=6741): 95.4%

Compound: COc1ccc2c(c1)c(CC(=O)N1CCOCC1)c(C)n2C(=O)c1ccc(Cl)cc1 [Indomethacin morpholinylamide]
- remaining activity at 3.75 µM ([1]; Well no.=971): 89.7%
- remaining activity at 1.25 µM ([2]; Well no.=971): 94.6%

Compound: CC1=C[C@]23C(=O)[C@@H](C=C(COC(=O)c4ccccc4)[C@@H](O)[C@]2(O)[C@H]1OC(=O)c1ccccc1)[C@H]1[C@@H](C[C@H]3C)C1(C)C [Ingenol 3,20-dibenzoate]
- remaining activity at 3.75 µM ([1]; Well no.=3363): 97.2%
- remaining activity at 1.25 µM ([2]; Well no.=3363): 95%

Compound: CC1=C[C@]23C(=O)[C@@H](C=C(CO)[C@@H](O)[C@]2(O)[C@H]1O)[C@H]1[C@@H](C[C@H]3C)C1(C)C [Ingenol]
- remaining activity at 3.75 µM ([1]; Well no.=3308): 99.1%
- remaining activity at 1.25 µM ([2]; Well no.=3308): 98.5%

Compound: NC(=O)c1ccc(I)c([N+](=O)[O-])c1 [Iniparib (BSI-201)]
- remaining activity at 3.75 µM ([1]; Well no.=5011): 103%
- remaining activity at 1.25 µM ([2]; Well no.=5011): 103%

Compound: O=c1[nH]cnc2c1ncn2[C@@H]1O[C@H](CO)[C@@H](O)[C@H]1O [Inosine]
- remaining activity at 3.75 µM ([1]; Well no.=5250): 92.9%
- remaining activity at 3.75 µM ([1]; Well no.=6147): 100%
- remaining activity at 3.75 µM ([1]; Well no.=8835): 89.2%
- remaining activity at 1.25 µM ([2]; Well no.=5250): 92.9%
- remaining activity at 1.25 µM ([2]; Well no.=6147): 105%
- remaining activity at 1.25 µM ([2]; Well no.=8835): 92.8%

Compound: O[C@H]1[C@H](O)[C@@H](O)[C@H](O)[C@@H](O)[C@H]1O [Inositol]
- remaining activity at 3.75 µM ([1]; Well no.=5481): 111%
- remaining activity at 1.25 µM ([2]; Well no.=5481): 111%

Compound: NC(=O)CI [Iodoacetamide]
- remaining activity at 3.75 µM ([1]; Well no.=430): 96.4%
- remaining activity at 1.25 µM ([2]; Well no.=430): 104%

Compound: CC(C)NC(C)Cc1ccc(I)cc1 (stereo not drawn) [Iofetamine hydrochloride]
- remaining activity at 3.75 µM ([1]; Well no.=1017): 105%
- remaining activity at 1.25 µM ([2]; Well no.=1017): 100%

Compound: CC(C)[N+]1(C)[C@@H]2CC[C@H]1C[C@@H](OC(=O)C(CO)c1ccccc1)C2 (stereo partly drawn) [Ipratropium bromide]
- remaining activity at 3.75 µM ([1]; Well no.=526): 103%
- remaining activity at 1.25 µM ([2]; Well no.=526): 105%

Compound: CC(C)Oc1ccc2c(=O)c(-c3ccccc3)coc2c1 [Ipriflavone]
- remaining activity at 3.75 µM ([1]; Well no.=5242): 97.9%
- remaining activity at 1.25 µM ([2]; Well no.=5242): 95.6%

Compound: CC(C)NNC(=O)c1ccncc1 [Iproniazid phosphate]
- remaining activity at 3.75 µM ([1]; Well no.=775): 105%
- remaining activity at 1.25 µM ([2]; Well no.=775): 104%

Compound: CC(C)NNC(=O)c1ccncc1 [Iproniazid]
- remaining activity at 3.75 µM ([1]; Well no.=2048): 96.1%
- remaining activity at 1.25 µM ([2]; Well no.=2048): 94.9%

Compound: CCCCC1=NC2(CCCC2)C(=O)N1Cc1ccc(-c2ccccc2-c2nnn[nH]2)cc1 [Irbesartan]
- remaining activity at 3.75 µM ([1]; Well no.=8251): 105%
- remaining activity at 1.25 µM ([2]; Well no.=8251): 105%

Compound: CCc1c2c(nc3ccc(OC(=O)N4CCC(N5CCCCC5)CC4)cc13)-c1cc3c(c(=O)n1C2)COC(=O)[C@]3(O)CC [Irinotecan]
- remaining activity at 3.75 µM ([1]; Well no.=5099): 98.8%
- remaining activity at 1.25 µM ([2]; Well no.=5099): 99.6%

Compound: Nc1nc(N)nc(-c2cc(Cl)ccc2Cl)n1 [Irsogladine]
- remaining activity at 3.75 µM ([1]; Well no.=2148): 98.3%
- remaining activity at 3.75 µM ([1]; Well no.=7629): 88.4%
- remaining activity at 1.25 µM ([2]; Well no.=2148): 98.6%
- remaining activity at 1.25 µM ([2]; Well no.=7629): 94%
